The source of these data is US20170305883A1, “Compositions and Methods for Inhibiting BMP” (THE BRIGHAM AND WOMEN'S HOSPITAL, INC., priority 2014, published 2017).

In one assay the target is T1, ALK2 (Homo sapiens, UniProt Q04771, Q207D).
T1 construct: His tag (N, cleaved yes); made in house; host or cells: Sf9 insect cells (baculovirus)
T1 sequence (Q04771 201-499 Q207D): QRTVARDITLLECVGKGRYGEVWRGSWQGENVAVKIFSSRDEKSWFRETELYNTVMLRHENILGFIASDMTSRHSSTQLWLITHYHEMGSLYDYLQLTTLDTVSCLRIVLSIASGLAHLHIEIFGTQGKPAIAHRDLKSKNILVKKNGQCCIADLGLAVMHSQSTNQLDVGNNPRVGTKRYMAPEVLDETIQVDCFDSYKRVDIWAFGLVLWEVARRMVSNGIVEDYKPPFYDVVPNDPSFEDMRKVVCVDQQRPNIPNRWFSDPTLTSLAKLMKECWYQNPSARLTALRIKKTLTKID
Briefly: Thermal shift kinase assay. The note with it: ALK2 ΔTm minus ALK5 ΔTm. The class given is binding. Here is the method: Thermal melting experiments were performed using a Real Time PCR machine Mx3005p (Stratagene) with a protein concentration of 1-2 μM and 10 μM inhibitor as described by Niesen et al., Nat Protoc 2007, 2, 2212-21. Recombinant human kinases for DSF screening were prepared by SGC using the published methods of […] et al., PLoS One 2013, 8, e62721. The potency and selectivity of certain compounds of the invention based on thermal shift kinase and ligand induced transcriptional activity assays are shown in Table 2.

The next assay has as its target PKC-η (Homo sapiens, UniProt P24723). Nature of the assay: Kinome profiling. Format: biochemical. The note with it: 100 nM, read-out: Inhibitory activity. As for the experimental part: The kinome-wide selectivity was determined following the methods previously reported by Mohedas et al., ACS Chem Biol 2013, 8, 1291-1302 and […] et al., PLoS One 2013, 8, e62721.

Sequence of PKC-η (P24723 whole entry): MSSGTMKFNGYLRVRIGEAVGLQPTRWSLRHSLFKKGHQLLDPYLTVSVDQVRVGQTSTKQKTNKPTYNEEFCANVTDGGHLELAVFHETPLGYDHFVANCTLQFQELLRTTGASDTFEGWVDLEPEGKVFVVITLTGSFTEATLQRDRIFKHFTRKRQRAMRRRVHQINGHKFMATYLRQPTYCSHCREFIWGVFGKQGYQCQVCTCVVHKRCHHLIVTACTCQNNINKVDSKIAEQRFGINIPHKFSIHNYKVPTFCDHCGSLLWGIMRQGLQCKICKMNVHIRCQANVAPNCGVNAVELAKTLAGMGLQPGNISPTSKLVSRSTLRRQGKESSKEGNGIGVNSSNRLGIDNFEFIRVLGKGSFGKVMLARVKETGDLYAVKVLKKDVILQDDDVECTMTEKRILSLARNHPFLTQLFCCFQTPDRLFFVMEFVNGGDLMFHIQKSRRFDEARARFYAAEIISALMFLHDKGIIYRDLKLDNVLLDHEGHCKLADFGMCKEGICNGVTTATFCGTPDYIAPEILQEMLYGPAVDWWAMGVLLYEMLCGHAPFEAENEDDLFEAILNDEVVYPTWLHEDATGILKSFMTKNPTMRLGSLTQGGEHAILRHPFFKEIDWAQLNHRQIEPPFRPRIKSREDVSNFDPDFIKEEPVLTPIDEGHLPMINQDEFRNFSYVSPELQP

`COc1cc(-c2cc(-c3ccc(N4CCNCC4)cc3)cnc2C)cc(OC)c1OC` [Compound 10, 1-(4-(6-methyl-5-(3,4,5-trimethoxyphenyl)pyridin-3-yl)phenyl)piperazine]: the “ΔTm Diff.” value at ALK2 came to 4.0 °C.

With `COc1cc(-c2cc(-c3ccc(O)cc3)cnc2N)cc(OC)c1OC` [Compound 11, 4-(6-Amino-5-(3,4,5-trimethoxyphenyl)pyridin-3-yl)phenol], at ALK2, the “ΔTm Diff.” value is 1.5 °C.

As to `COc1cc(-c2cnc(N)c(-c3cc(OC)c(OC)c(OC)c3)c2)ccc1O` [Compound 12, 4-(6-amino-5-(3,4,5-trimethoxyphenyl)pyridin-3-yl)-2-methoxyphenol], on ALK2, the “ΔTm Diff.” value was determined as 1.7 °C.

`COc1cc(-c2cc(-c3cccc(NS(C)(=O)=O)c3)cnc2N)cc(OC)c1OC` [Compound 13, N-(3-(6-amino-5-(3,4,5-trimethoxyphenyl)pyridin-3-yl)phenyl)methanesulfonamide]: on ALK2, the “ΔTm Diff.” value came out at 0.9 °C.

With `COc1cc(-c2cc(-c3cccc(N4CCNCC4)c3)cnc2N)cc(OC)c1OC` [Compound 14, 5-(3-(piperazin-1-yl)phenyl)-3-(3,4,5-trimethoxyphenyl)pyridin-2-amine], the “ΔTm Diff.” value at ALK2 came out at 0.8 °C.

With `COc1cc(-c2cc(-c3ccc(N4CCNCC4)cc3)cnc2N)cc(OC)c1OC` [Compound 15, 5-(4-(piperazin-1-yl)phenyl)-3-(3,4,5-trimethoxyphenyl)pyridin-2-amine], the “ΔTm Diff.” value at ALK2 worked out at 1.2 °C. In addition, at PKC-η, the inhibition at 0.1 µM was found to be 5%.

On to `COc1ccc(-c2cc(-c3ccc(N4CCNCC4)cc3)cnc2N)cc1OC` [Compound 16, 3-(3,4-dimethoxyphenyl)-5-(4-(piperazin-1-yl)phenyl)pyridin-2-amine], for which the “ΔTm Diff.” value on ALK2 was found to be 4.3 °C.

On to `COc1cc(OC)cc(-c2cc(-c3ccc(N4CCNCC4)cc3)cnc2N)c1` [Compound 17, 3-(3,5-dimethoxyphenyl)-5-(4-(piperazin-1-yl)phenyl)pyridin-2-amine], for which the “ΔTm Diff.” value at ALK2 is 3.5 °C.

For the molecule `COc1cccc(-c2cc(-c3ccc(N4CCNCC4)cc3)cnc2N)c1` [Compound 18, 3-(3-methoxyphenyl)-5-(4-(piperazin-1-yl)phenyl)pyridin-2-amine], the “ΔTm Diff.” value on ALK2 was found to be 3.8 °C.

Consider `Nc1ncc(-c2ccc(N3CCNCC3)cc2)cc1-c1ccc2c(c1)OCCO2` [Compound 19, 3-(2,3-dihydrobenzo[b][1,4]dioxin-6-yl)-5-(4-(piperazin-1-yl)phenyl)pyridin-2-amine], for which the “ΔTm Diff.” value at ALK2 turned out to be 4.0 °C.

Consider `COc1ccc(-c2cc(-c3ccc(N4CCNCC4)cc3)cnc2N)cc1` [Compound 20, 3-(4-methoxyphenyl)-5-(4-(piperazin-1-yl)phenyl)pyridin-2-amine], for which, at ALK2, the “ΔTm Diff.” value is 4.5 °C.

Turning to `CC(C)Oc1cccc(-c2cc(-c3ccc(N4CCNCC4)cc3)cnc2N)c1` [Compound 21, 3-(3-isopropoxyphenyl)-5-(4-(piperazin-1-yl)phenyl)pyridin-2-amine], on ALK2, the “ΔTm Diff.” value amounted to 1.0 °C.

Take `COc1cc(-c2cc(-c3ccc(N4CCNCC4)cc3)cnc2N)ccc1Cl` [Compound 22, 3-(4-chloro-3-methoxyphenyl)-5-(4-(piperazin-1-yl)phenyl)pyridin-2-amine]: at ALK2, the “ΔTm Diff.” value amounted to 2.7 °C.

As for `COc1cc(-c2cc(-c3ccc(N4CCNCC4)cc3)cnc2N)ccc1C` [Compound 23, 3-(3-methoxy-4-methylphenyl)-5-(4-(piperazin-1-yl)phenyl)pyridin-2-amine], the “ΔTm Diff.” value at ALK2 was 3.8 °C.

In the case of `CNc1ncc(-c2ccc(N3CCNCC3)cc2)cc1-c1cc(OC)c(OC)c(OC)c1` [Compound 24, N-methyl-5-(4-(piperazin-1-yl)phenyl)-3-(3,4,5-trimethoxyphenyl)pyridin-2-amine], the “ΔTm Diff.” value on ALK2 is −0.5 °C.

As to `COc1cc(-c2cc(-c3ccc(N4CCNCC4)cc3)cnc2N(C)C)cc(OC)c1OC` [Compound 25, N,N-dimethyl-5-(4-(piperazin-1-yl)phenyl)-3-(3,4,5-trimethoxyphenyl)pyridin-2-amine], the “ΔTm Diff.” value at ALK2 was 0.1 °C.

For the molecule `COc1cc(-c2cncc(-c3ccc(N4CCNCC4)cc3)c2)cc(OC)c1OC` [Compound 26, 1-(4-(5-(3,4,5-trimethoxyphenyl)pyridin-3-yl)phenyl)piperazine], the “ΔTm Diff.” value on ALK2 came out at 3.7 °C.

`COc1cc(-c2cc(-c3ccc(N4CCNCC4)cc3)cnc2Cl)cc(OC)c1OC` [Compound 27, 1-(4-(6-chloro-5-(3,4,5-trimethoxyphenyl)pyridin-3-yl)phenyl)piperazine]: the “ΔTm Diff.” value at ALK2 was 3.8 °C.

As for `COc1cc(-c2cc(-c3ccc(N4CCNCC4)cc3)cnc2OC)cc(OC)c1OC` [Compound 28, 1-(4-(6-methoxy-5-(3,4,5-trimethoxyphenyl)pyridin-3-yl)phenyl)piperazine], the “ΔTm Diff.” value at ALK2 was determined as 0.1 °C.

With `Nc1ncc(-c2ccc(N3CCNCC3)cc2)cc1-c1ccnc2ccccc12` [Compound 29], the “ΔTm Diff.” value on ALK2 stood at 3.4 °C.

Consider `Nc1ncc(-c2cccc(N3CCNCC3)c2)cc1-c1ccnc2ccccc12` [Compound 30, 5-(3-(piperazin-1-yl)phenyl)-3-(quinolin-4-yl)pyridin-2-amine], for which the “ΔTm Diff.” value at ALK2 stood at 2.5 °C.

For `Nc1ncc(-c2ccc(N3CCNCC3)cc2)cc1-c1cccc2ncccc12` [Compound 31, 5-(4-(piperazin-1-yl)phenyl)-3-(quinolin-5-yl)pyridin-2-amine], on ALK2, the “ΔTm Diff.” value was 4.2 °C.

In the case of `COc1cc(-c2cnn3cc(-c4ccc(N5CCNCC5)cc4)cnc23)cc(OC)c1OC` [Compound 32, 3-(3,4,5-trimethoxyphenyl)-6-[4-(1-piperazinyl)phenyl]pyrazolo[1,5-a]pyrimidine], the “ΔTm Diff.” value at ALK2 worked out at 2.6 °C.

Turning to `COc1cc(OC)cc(-c2cncc(-c3ccc(N4CCNCC4)cc3)c2)c1` [Compound 33, 1-(4-(5-(3,5-dimethoxyphenyl)pyridin-3-yl)phenyl)piperazine], the “ΔTm Diff.” value at ALK2 amounted to 4.7 °C.

Take `COc1cc(-c2cc(-c3cccc(O)c3)cnc2N)cc(OC)c1OC` [Compound K02288, 3-(6-Amino-5-(3,4,5-trimethoxyphenyl)pyridin-3-yl)phenol, reference compound]: on ALK2, the “ΔTm Diff.” value is 2.0 °C.
